Earlier results as cited in patent publication US20070026077A1 (priority 2003, published 2007).

Key:
[1] = test system: small-cell lung carcinoma; conditions: patients with small-cell lung carcinoma
[2] = white crystalline light powder

| SMILES | survival time [1] | tumor disease progression [1] | bound to plasmatic proteins (plasmatic proteins) | hygroscopicity [2] |
| --- | --- | --- | --- | --- |
| CC(=O)CC(c1ccccc1)c1c(O)c2ccccc2oc1=O (stereo not shown) [warfarin] | prolongation of survival time | statistically significant retardation of tumor disease progression | About 97% |  |
| CC(=O)CC(c1ccccc1)c1c([O-])c2ccccc2oc1=O.[Na+] (stereo not drawn) [warfarin sodium salt, sodium salt of 3-(α-acetonylbenzyl)-4-hydroxy-coumarin] |  |  |  | hygroscopic |
